Measured values as given in paper PMC4757757, “Discovery of cahuitamycins as biofilm inhibitors derived from a convergent biosynthetic pathway” (Nature Communications, 2016).

Columns and labels:
[1] = reference value used for the calculation; cited from earlier work
Experimental: (§1) In this method, the Fe–cahuitamycin complex was incubated with varying concentrations of EDTA and assessed for Fe distribution using ultraviolet–visible spectroscopy (Methods). The pFe^III for cahuitamycins were calculated against the known stability constants for EDTA (pFe^III=23.42)[24].

[2] = test system: A. baumannii ATCC 17978 biofilm; experiment: confocal laser scanning microscope 3D imaging of biofilm formation and biomass (SYTO 9 / propidium iodide, COMSTAT); format: cell-based, Acinetobacter baumannii
Experimental: For visualizing bacterial biofilm formation, the same method as described previously was used for biofilm formation but in a glass-bottom 96-well plate (12–556–38, Fisher Scientific International Inc., Franklin, MA)[65]. […] PBS buffer (100 μl) containing 1 μM of SYTO 9 and 10 μM of propidium iodide was added into the well. The plate was incubated for 15 min in dark. Fluorescent images were acquired with an Olympus Fluoview FV1000 confocal microscope (Olympus, Markham, Ontario) with Melles Griot Laser supply and detectors and filter sets for monitoring SYTO 9 and propidium iodide fluorescence. Images were obtained using an oil immersion × 60 objective lens. 3D images were reconstructed using the Amira software package (Amira, San Diego, CA) from a stack of sectional images of biofilm samples. Biofilm biomass and per cent coverage were calculated based on those images using software COMSTAT[65].

A. baumannii ATCC 17978 = experiment: growth of A. baumannii (minimum inhibitory concentration test, OD600 / CFU); format: cell-based, Acinetobacter baumannii
Experimental: Cultures of A. baumannii ATCC 17978 grown overnight were diluted into fresh 10% Mueller Hinton II broth to get 10^5 colony-forming unit per ml by determining optical density at OD600. A volume of 100 μl of diluted cultures were incubated in individual wells of 96-well plate containing 1% of DMSO and various concentrations of cahuitamycins C (3) and D (4). The plate was incubated at 30 °C with shaking at 150 r.p.m. The optical density of each well was monitored every 1 up to 24 h using a microtiter plate reader (Synergy HT, Bio-Tek, Winooski, VT). The number of viable bacterial cells was determined by counting colony-forming unit.

[3] = iron affinity (pFe^III) by competition titration with EDTA, UV-visible spectroscopy; format: binding; settings: 10 mM HEPES, 0.1 M KCl, pH 7.4, 0.1 mM Fe complex, room temperature, at least 24 h, UV-vis, three individual titrations
Experimental: as §1

[4] = test system: A. baumannii ATCC 17978 biofilm; format: cell-based, Acinetobacter baumannii; settings: static crystal violet assay, OD600
Description: A static biofilm assay was developed from a previously reported method. The biofilm assay measures the adhesion of bacteria to the surface of polystyrene 384-well microtiter plates. Adherent cells are detected by staining with crystal violet and subsequent washing to remove nonadherent planktonic cells. Inhibitors of biofilm formation prevent the bacteria from adhering to the surface of the microtiter plate and reduce the amount of crystal violet retained after washing. Assay quantification was performed by OD600 absorbance measurement of the crystal-violet-stained biofilm. The assay was optimized for plate surface treatment, time, temperature, media, media concentration, crystal violet concentration, wash method, inhibitor sensitivity and culture inoculum preparation.
The A. baumannii test strain (ATCC 17978) was maintained as a frozen stock at −80 °C in 20% glycerol. A volume of 5 ml of Mueller Hinton II cation adjusted media (Becton Dickinson, catalogue no. 212322) was inoculated and grown at 37 °C, 180 r.p.m. shaking for 4–6 h. The culture was then diluted 1:50 and incubated an additional 2 h. The resulting cells were washed four times by centrifugation and resuspension of the pellet in media was performed to remove any metabolites or cell signalling factors. The assay inoculum was prepared by diluting the cells to 0.008 OD600 in 10% Mueller Hinton II cation adjusted media (diluted in 18 Ohm deionized water). The assay plates (Corning, catalogue no. 3,680; 384-well non-treated polystyrene) were prepared by dispensing 20 μl of 10% Mueller Hinton II cation adjusted media into columns 1–22 using a Multidrop Combi dispenser (Thermo Fisher). The NPE samples were added as 0.2 μl of 15 mg ml^−1 stocks in DMSO using a Biomek FX high-density pintool (Beckman Coulter). Column 1 and 2 contained DMSO without NPEs and served as the negative control. The positive control was added to column 23 and 24 as 20 μl of 40 μM Baicalein (Sigma-Aldrich, catalogue no. 11712). […] Quantification was performed by measuring the OD600 absorbance using a Pherastar plate reader (BMG).

[5] = test system: A. baumannii ATCC 17978 biofilm; experiment: flow cell biofilm assay (micrographs); format: cell-based, Acinetobacter baumannii; settings: for biofilm in flow cells after 6 h of supplementation (in words) / biofilm in flow cells after 24 h of supplementation (in words): 7.5 μg/ml in 10% MHII broth, flow rate 4 ml/h, room temperature
Experimental: Next, we sought to probe the specific stage and extent of inhibition during biofilm formation employing a secondary flow cell assay (Supplementary Fig. 44; Methods).
Biofilms were formed by A. baumannii ATCC 17978 in flow chambers at room temperature. Images were taken at 1, 6 and 24 h (using a × 60 lens) after inoculation. A flow cell biofilm was achieved by using a flow cell chamber (ACCFL0001, Life Science Incorporated, Greensboro, NC). Briefly, overnight cultures of A. baumannii ATCC 17978 grown in MHII broth at 37 °C were diluted 100-fold with fresh MHII broth. A volume of 1 ml of dilution was injected into a flow cell chamber and allowed to settle 1 h for attachment of bacteria, followed by initiation media flow at a flow rate of 4 ml^−1 h^−1. Flow media was 10% MHII broth (control), 10% MHII broth with 7.5 μg ml^−1 of desferoxamine or 10% MHII broth with […] of cahuitamycin A. Micrographs of the biofilm were acquired at 1, 6 and 24 h after the start of flow media using an Olympus IX70 microscope with a × 60 lens. Flow was still running while acquiring the micrograph.

[6] = treated at 240 nM, 22 h incubation, confocal x60, average of five replicates

| Compound | total biomass of biofilm ([2]; glass plate treated at 240 nM) | Average thickness of biofilm [2, 6] [μm] | Maximum thickness of biofilm [2, 6] [μm] | Roughness coefficient of biofilm [2, 6] | total biomass of biofilm [2, 6] [μm^3 μm^−2] | effect on bacterial growth (in words) (A. baumannii ATCC 17978) | pFe^III [3] | biofilm in flow cells after 6 h of supplementation (in words) [5] | biofilm in flow cells after 24 h of supplementation (in words) [5] | effect on biofilm formation (in words) [4] | further results |
| --- | --- | --- | --- | --- | --- | --- | --- | --- | --- | --- | --- |
| O=C(O)CN(CCN(CC(=O)O)CC(=O)O)CC(=O)O [EDTA] |  |  |  |  |  |  |  |  |  |  | pFe^III (known stability constant) [1]: 23.42 |
| Cc1cccc(O)c1C1=N[C@H](C(=O)N[C@@H](CO)C(=O)N[C@H](CCCN(O)C=O)C(=O)N2NCCC[C@@H]2C(=O)NCCC(=O)O)CO1 [compound 3, Cahuitamycin C] | 0.10 | 0.20±0.05 | 1.5±0.33 | 1.99±0.20 | 0.10±0.03 | limited effect | 17.52±0.12 |  |  |  |  |
| Cc1ccc(O)c(C2=N[C@H](C(=O)N[C@@H](CO)C(=O)N[C@H](CCCN(O)C=O)C(=O)N[C@H](CCCNO)C(=O)NCCC(=O)O)CO2)c1 [compound 5, Cahuitamycin E] |  |  |  |  |  |  |  |  |  |  | IC50 ([4]; 10% Mueller Hinton II, 30 °C, 20 h, average of three replicates, read-out: IC50, inhibition of biofilm formation): 10.5 µM |
| CC(=O)N(O)CCCCCNC(=O)CCC(=O)N(O)CCCCCNC(=O)CCC(=O)N(O)CCCCCN [desferrioxamine] |  |  |  |  |  |  |  | formation of a robust biofilm | biofilm became thicker |  | anti-biofilm activity of siderophore control (in words) ([5]; control to probe iron chelation as mode of action, Supplementary Figs 38 and 44): no activity |
| Cahuitamycin A [compound 1] | 0.18 | 0.21±0.07 | 1.5±0.54 | 1.99±0.18 | 0.18±0.05 |  | 18.34±0.16 | only a few microcolonies | larger microcolonies and initiation of biofilm formation | able to inhibit |  |
| Cahuitamycin B [compound 2] |  |  |  |  |  | no effects | 20.42±0.09 |  |  | no effects |  |
